The values that follow come from ChEMBL document CHEMBL4020724, “Selective HDAC inhibitors with potent oral activity against leukemia and colorectal cancer: Design, structure-activity relationship and anti-tumor activity study” (Eur J Med Chem, 2017).

Calls of active or inactive are those of the source. The calls are words filed in the database; no cut-off is given here.

Data set [1] in a line: Inhibition of class 1 HDAC in human HL60 cells using Boc-Ac-Lys-AMC as substrate incubated for 3 hrs followed by substrate addition measured after 3 hrs by fluorescence assay. It is filed as cell-based. Particulars: HL-60, 3 h.
In data set [2] the test system is U-937. Description: Antitumor activity against human U937 cells xenografted in BALB/c nude mouse assessed as tumor growth inhibition at 50 mg/kg/day administered via oral gavage for 13 days measured every 3 days. It is filed as functional. Particulars: U-937, po, read-out: TGI. A general note: A xenograft is tissue or cells of one species grown in another, often human tumour cells in immunodeficient mice.

Data set [3] deals with U-937. Description: Antitumor activity against human U937 cells xenografted in BALB/c nude mouse assessed as relative tumor increment ratio at 50 mg/kg/day administered via oral gavage for 13 days measured every 3 days. The class given is functional.
Data set [4] concerns Mus musculus. Description: Toxicity in BALB/c nude mouse xenografted with human U937 cells assessed as body weight at 50 mg/kg/day administered via oral gavage for 13 days (reference value: 25.39 +/- 1.18 g). It is filed as organism-based. Conditions: in vivo, 312 h.
The test system of data set [5] is HCT-116. Description: Antitumor activity against human HCT116 cells xenografted in BALB/c nude mouse assessed as tumor growth inhibition at 50 mg/kg/day administered via oral gavage for 16 days measured every 3 days. The class given is functional. Particulars: HCT-116, po, read-out: TGI.
Data set [6] deals with HCT-116. Description: Antitumor activity against human HCT116 cells xenografted in BALB/c nude mouse assessed as relative tumor increment ratio at 50 mg/kg/day administered via oral gavage for 16 days measured every 3 days. The class given is functional.
For data set [7], the system named is Mus musculus. Briefly: Toxicity in BALB/c nude mouse xenografted with human HCT116 cells assessed as body weight at 50 mg/kg/day administered via oral gavage for 16 days (reference value: 19.91 +/- 1.26 g). The class given is organism-based. Particulars: in vivo, 384 h.
In data set [8] the test system is HL-60. Briefly: Induction of apoptosis in human HL60 cells assessed as decrease in procaspase-3 level at 5 uM after 48 hrs by Western blot analysis. The class given is functional, cell-based. (In general: In western blotting, separated proteins are transferred to a membrane and probed.)
The subject of data set [9] is HL-60. Description: Induction of apoptosis in human HL60 cells assessed as increase in cleaved caspase-3 level at 5 uM after 48 hrs by Western blot analysis. It is filed as functional, cell-based.
Data set [10] deals with HL-60. Description: Induction of apoptosis in human HL60 cells assessed as increase in cleaved PARP level at 5 uM after 48 hrs by Western blot analysis. The class given is functional, cell-based.
Data set [11] in a line: cells. Particulars: Homo sapiens, ES-2, 48 h.
Description: Antiproliferative activity against human ES2 cells after 48 hrs by MTT assay
The test system of data set [12] is Mus musculus. Description: Toxicity in BALB/c nude mouse xenografted with human U937 cells assessed as body weight loss at 50 mg/kg/day administered via oral gavage for 13 days. Particulars: in vivo, 312 h.
Data set [13] deals with Mus musculus. Briefly: Toxicity in BALB/c nude mouse xenografted with human HCT116 cells assessed as body weight at 100 mg/kg/day administered via oral gavage for 16 days (reference value: 19.91 +/- 1.26 g). Conditions: in vivo, 384 h. It is filed as organism-based.
The target in data set [14] is Histone deacetylase 1 (Homo sapiens, UniProt Q13547). Briefly: Inhibition of HDAC1 (unknown origin) using Boc-Lys (acetyl)-AMC as substrate incubated for 10 mins followed by substrate addition measured after 30 mins by fluorescence assay.
Chain of Histone deacetylase 1 (Q13547 whole entry): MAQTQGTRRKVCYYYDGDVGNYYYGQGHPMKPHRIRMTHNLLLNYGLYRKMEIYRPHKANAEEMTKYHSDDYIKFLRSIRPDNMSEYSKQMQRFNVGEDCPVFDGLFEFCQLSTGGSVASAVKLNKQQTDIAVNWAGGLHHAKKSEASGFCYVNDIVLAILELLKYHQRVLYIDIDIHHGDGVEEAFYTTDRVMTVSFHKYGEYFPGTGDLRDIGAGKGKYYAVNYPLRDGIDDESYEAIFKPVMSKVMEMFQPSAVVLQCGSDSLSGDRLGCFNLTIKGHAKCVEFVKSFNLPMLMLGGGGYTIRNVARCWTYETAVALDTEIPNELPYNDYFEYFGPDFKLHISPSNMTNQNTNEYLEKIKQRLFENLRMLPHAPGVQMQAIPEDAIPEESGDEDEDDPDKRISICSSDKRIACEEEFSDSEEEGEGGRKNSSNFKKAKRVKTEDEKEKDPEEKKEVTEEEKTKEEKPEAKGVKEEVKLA
The target of data set [15] is Histone deacetylase 2 (Homo sapiens, UniProt Q92769). Briefly: Inhibition of HDAC2 (unknown origin) using Boc-Lys (acetyl)-AMC as substrate incubated for 10 mins followed by substrate addition measured after 30 mins by fluorescence assay.
Chain of Histone deacetylase 2 (Q92769 whole entry): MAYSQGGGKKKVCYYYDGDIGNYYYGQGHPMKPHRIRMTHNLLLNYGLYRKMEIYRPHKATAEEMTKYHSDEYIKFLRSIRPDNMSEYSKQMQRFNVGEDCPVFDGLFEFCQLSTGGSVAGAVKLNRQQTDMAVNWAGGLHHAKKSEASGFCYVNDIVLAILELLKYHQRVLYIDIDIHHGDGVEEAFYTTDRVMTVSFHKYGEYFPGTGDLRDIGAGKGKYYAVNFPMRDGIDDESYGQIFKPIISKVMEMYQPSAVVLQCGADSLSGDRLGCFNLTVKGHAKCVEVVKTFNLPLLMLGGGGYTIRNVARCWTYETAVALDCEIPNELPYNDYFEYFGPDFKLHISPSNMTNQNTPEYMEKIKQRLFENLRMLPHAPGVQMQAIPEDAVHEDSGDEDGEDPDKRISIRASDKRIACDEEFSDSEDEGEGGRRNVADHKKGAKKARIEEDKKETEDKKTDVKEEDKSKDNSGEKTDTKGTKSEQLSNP
The target in data set [16] is Histone deacetylase 3 (Homo sapiens, UniProt O15379). Description: Inhibition of HDAC3 (unknown origin) using Boc-Lys (acetyl)-AMC as substrate incubated for 10 mins followed by substrate addition measured after 30 mins by fluorescence assay.
Chain of Histone deacetylase 3 (O15379 whole entry): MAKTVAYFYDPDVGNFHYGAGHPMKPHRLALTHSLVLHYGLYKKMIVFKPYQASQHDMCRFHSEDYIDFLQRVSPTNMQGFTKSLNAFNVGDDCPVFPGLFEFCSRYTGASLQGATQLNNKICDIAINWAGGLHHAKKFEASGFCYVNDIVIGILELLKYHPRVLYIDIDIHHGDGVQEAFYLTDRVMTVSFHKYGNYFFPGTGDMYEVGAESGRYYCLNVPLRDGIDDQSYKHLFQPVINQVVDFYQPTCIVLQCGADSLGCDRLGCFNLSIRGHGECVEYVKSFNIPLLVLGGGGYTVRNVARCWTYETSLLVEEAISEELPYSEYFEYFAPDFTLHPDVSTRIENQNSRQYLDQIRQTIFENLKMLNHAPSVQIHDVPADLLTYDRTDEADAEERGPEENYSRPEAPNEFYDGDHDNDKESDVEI
The test system of data set [17] is U-937. Briefly: Antitumor activity against human U937 cells xenografted in BALB/c nude mouse assessed as tumor growth inhibition at 100 mg/kg/day administered via oral gavage for 13 days measured every 3 days. It is filed as functional. Conditions: U-937, po, read-out: TGI.
Data set [18] deals with Mus musculus. Briefly: Toxicity in BALB/c nude mouse xenografted with human U937 cells assessed as body weight at 100 mg/kg/day administered via oral gavage for 13 days (reference value: 25.39 +/- 1.18 g). It is filed as organism-based. Conditions: in vivo, 312 h.
Data set [19] has as its system HCT-116. Briefly: Antitumor activity against human HCT116 cells xenografted in BALB/c nude mouse assessed as tumor growth inhibition at 100 mg/kg/day administered via oral gavage for 16 days measured every 3 days. Conditions: HCT-116, po, read-out: TGI. The class given is functional.
The test system of data set [20] is HCT-116. Briefly: Antitumor activity against human HCT116 cells xenografted in BALB/c nude mouse assessed as relative tumor increment ratio at 100 mg/kg/day administered via oral gavage for 16 days measured every 3 days. It is filed as functional.
Data set [21] addresses T1, Histone deacetylase (HDAC1 and HDAC2) (Homo sapiens) (UniProt Q13547+Q92769). Description: Inhibition of HDAC1/2 in human HL60 cells assessed as increase in acetylated histone H3 level at 1 to 5 uM after 48 hrs by Western blot analysis. The class given is cell-based.
In data set [22] the target is T1, Histone deacetylase (HDAC1 and HDAC2) (Homo sapiens). Description: Inhibition of HDAC1/2 in human HL60 cells assessed as increase in acetylated histone H4 level at 1 to 5 uM after 48 hrs by Western blot analysis. The class given is cell-based.
Data set [23] has as its system HL-60. Description: Induction of apoptosis in human HL60 cells assessed as decrease in procaspase-3 level at 1 to 5 uM after 48 hrs by Western blot analysis. It is filed as functional, cell-based.
The subject of data set [24] is HL-60. Briefly: Induction of apoptosis in human HL60 cells assessed as increase in cleaved caspase-3 level at 1 to 5 uM after 48 hrs by Western blot analysis. The class given is functional, cell-based.
The subject of data set [25] is HL-60. Briefly: Induction of apoptosis in human HL60 cells assessed as increase in cleaved PARP level at 1 to 5 uM after 48 hrs by Western blot analysis. It is filed as functional, cell-based.

T1 sequence (Q13547 whole entry, looked up): as the sequence (Q13547 whole entry) above
T1 sequence (Q92769 whole entry, looked up): as the sequence (Q92769 whole entry) above

The IC50 is the concentration at which inhibition is half-maximal. A low value points to greater potency in that assay. The T/C is the result in the treated group divided by that in the control group, in per cent. On to `Nc1ccccc1NC(=O)c1ccc(CNC(=O)OCc2cccnc2)cc1` [ENTINOSTAT], for which the half-maximal inhibitory concentration (IC50) was 620 nM in data set [1] and over 20000 nM in data set [11]. Moreover, the inhibition in vivo at 50 mg/kg/day in data set [2] is 60%; in data set [5], 62%. Also, the T/C is on record as 32% in data set [3] and 46% in [6]. The Activity in [4] was 19.77 g; in [7], 18.87 g; in data set [12] it was “Toxic”. For the same compound, the result in data set [8], in [9] and in [10] was Active.
For `COc1ccc(C(=O)N[C@@H](Cc2c[nH]c3ccccc23)C(=O)NCc2ccc(C(=O)Nc3ccccc3N)cc2)cc1`, the Activity in data set [13] worked out at 21.59 g; in data set [18], 25.04 g. Also, the IC50 in data set [14] is 20.6 nM; in [15], 157 nM; in data set [16] it was 138 nM; in data set [11], over 20000 nM. The inhibition in vivo at 100 mg/kg/day in data set [17] stood at 51%; in data set [19], 49%. Moreover, the T/C in data set [20] was 59%. Further, the inhibition result in [21] and in data set [22] was “Active” each time. In addition, the outcome in [23], in data set [24] and in [25] was Active.
